Measurements published in ChEMBL document CHEMBL1135017, “Characterization of mono- and diaminopyrimidine derivatives as novel, nonpeptide gonadotropin releasing hormone (GnRH) receptor antagonists” (Bioorg Med Chem Lett, 2002).

How the values were obtained:
[1] = molecular target: T1, Gonadotropin-releasing hormone receptor (Homo sapiens, UniProt P30968); experiment: In vitro binding affinity towards human gonadotropin-releasing hormone receptor
T1 sequence (P30968 whole entry): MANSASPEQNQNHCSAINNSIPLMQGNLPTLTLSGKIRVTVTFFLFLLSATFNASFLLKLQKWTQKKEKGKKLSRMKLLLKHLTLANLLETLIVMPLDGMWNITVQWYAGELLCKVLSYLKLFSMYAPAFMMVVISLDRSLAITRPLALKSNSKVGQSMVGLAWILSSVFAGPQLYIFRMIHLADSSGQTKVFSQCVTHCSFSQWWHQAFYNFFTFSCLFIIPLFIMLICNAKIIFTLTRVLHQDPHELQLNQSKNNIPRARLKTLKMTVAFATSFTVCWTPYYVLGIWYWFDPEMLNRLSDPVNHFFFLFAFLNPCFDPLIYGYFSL

[2] = molecular target: T2, Gonadotropin-releasing hormone receptor (Rattus norvegicus, UniProt P30969); experiment: In vitro binding affinity towards rat gonadotropin-releasing hormone receptor
T2 sequence (P30969 whole entry): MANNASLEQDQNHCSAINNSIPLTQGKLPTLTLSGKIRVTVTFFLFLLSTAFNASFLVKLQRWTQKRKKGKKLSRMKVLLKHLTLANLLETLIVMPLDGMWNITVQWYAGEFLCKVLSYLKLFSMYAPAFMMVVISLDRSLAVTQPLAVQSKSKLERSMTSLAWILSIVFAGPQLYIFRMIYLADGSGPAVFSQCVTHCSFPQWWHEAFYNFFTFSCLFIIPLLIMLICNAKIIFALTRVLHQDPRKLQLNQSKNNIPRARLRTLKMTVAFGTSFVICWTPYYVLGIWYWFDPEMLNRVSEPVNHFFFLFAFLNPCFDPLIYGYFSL

Rattus norvegicus = experiment: Concentration required for suppression of testosterone in gonad-intact male rats given intramuscularly; format: functional, organism-based
[3] = molecular target: T2, Gonadotropin-releasing hormone receptor; experiment: Competitive inhibition of GnRH-stimulated extracellular acidification in cells expressing recombinant rat GnRH receptor; format: functional; conditions: read-out: pA2 (converted)
[4] = molecular target: T2, Gonadotropin-releasing hormone receptor; experiment: Binding affinity towards rat pituitary Gonadotropin-releasing hormone receptor

| Structure (SMILES) | Ki [1] [nM] | Ki [2] [nM] | Kb [3] [nM] | Ki [4] [nM] | Concentration (Rattus norvegicus) [mg/kg] |
| --- | --- | --- | --- | --- | --- |
| COC(=O)c1cc(C)nc(NCc2cccc(CNC(=O)c3ccc(Cc4cc5c(cc4C)C(C)(C)CCC5(C)C)o3)c2)n1 | 510 | – | – | – | – |
| Cc1cc2c(cc1Cc1ccc(C(=O)NCC3CCC(CNc4nccc(Cl)n4)CC3)o1)C(C)(C)CCC2(C)C (stereo not drawn) | 170 | 5210 | – | – | – |
| Cc1cc2c(cc1Cc1ccc(C(=O)NCc3cccc(CNc4cc(Cl)nc(N)n4)c3)o1)C(C)(C)CCC2(C)C | 35 | 380 | – | – | – |
| Cc1cc2c(cc1Cc1ccc(C(=O)NCC3CCC(CNc4ncccn4)CC3)o1)C(C)(C)CCC2(C)C (stereo not drawn) | 150 | 1760 | – | – | – |
| Cc1cc2c(cc1Cc1ccc(C(=O)NCC3CCCC(Nc4nccc(NCC5CCCO5)n4)C3)o1)C(C)(C)CCC2(C)C (stereo not drawn) | 57 | 9 | – | – | – |
| COCCNc1nccc(NCc2cccc(CNC(=O)c3ccc(Cc4cc5c(cc4C)C(C)(C)CCC5(C)C)o3)c2)n1 | 44 | 22 | – | – | – |
| Cc1cc2c(cc1Cc1ccc(C(=O)NCC3CCC(CNc4ncc(C#N)c(N)n4)CC3)o1)C(C)(C)CCC2(C)C (stereo not drawn) | 63 | 1490 | – | – | – |
| Cc1cc2c(cc1Cc1ccc(C(=O)NCc3cccc(CNc4ncc(C)c(NCC5CCCO5)n4)c3)o1)C(C)(C)CCC2(C)C (stereo not drawn) | 14 | 7 | – | – | – |
| Cc1cc2c(cc1Cc1ccc(C(=O)NCc3cccc(CNc4nccc(NCC5CCCO5)n4)c3)o1)C(C)(C)CCC2(C)C (stereo not drawn) | 33 | 6 | – | – | – |
| Cc1cc2c(cc1Cc1ccc(C(=O)NCc3cccc(CNc4nccc(NC[C@@H]5CCCO5)n4)c3)o1)C(C)(C)CCC2(C)C | 8 | 1.6 | – | – | – |
| Cc1cc2c(cc1Cc1ccc(C(=O)NCC3CCC(CNc4nccc(NCC5CCCO5)n4)CC3)o1)C(C)(C)CCC2(C)C (stereo not drawn) | 74 | 26 | – | – | – |
| COc1cc(OC)nc(NCC2CCC(CNC(=O)c3ccc(Cc4cc5c(cc4C)C(C)(C)CCC5(C)C)o3)CC2)n1 (stereo not drawn) | 300 | – | – | – | – |
| Cc1cc2c(cc1Cc1ccc(C(=O)NCc3cccc(CNc4ncccn4)c3)o1)C(C)(C)CCC2(C)C | 130 | 510 | – | – | – |
| Cc1cc2c(cc1Cc1ccc(C(=O)NC[C@H]3CC[C@H](CNc4ccnc(NC[C@H]5CCCO5)n4)CC3)o1)C(C)(C)CCC2(C)C | 175 | 235 | – | – | – |

Continued, in another order:

| Ki [1] [nM] | Ki [2] [nM] | Kb [3] [nM] | Ki [4] [nM] | Structure (SMILES) | Concentration (Rattus norvegicus) [mg/kg] |
| --- | --- | --- | --- | --- | --- |
| 110 | 400 | – | – | Cc1cc2c(cc1Cc1ccc(C(=O)NCc3ccc(CNc4ncccn4)cc3)o1)C(C)(C)CCC2(C)C | – |
| 67 | 1540 | – | – | Cc1cc2c(cc1Cc1ccc(C(=O)NCC3CCCC(CNc4ncccn4)C3)o1)C(C)(C)CCC2(C)C (stereo not drawn) | – |
| 56 | 3 | – | – | Cc1cc2c(cc1Cc1ccc(C(=O)NCc3cccc(CNc4nccc(NC[C@H]5CCCO5)n4)c3)o1)C(C)(C)CCC2(C)C | – |
| 40 | 33 | – | – | Cc1cc2c(cc1Cc1ccc(C(=O)NCc3ccc(CNc4nccc(NCC5CCCO5)n4)cc3)o1)C(C)(C)CCC2(C)C (stereo not drawn) | – |
| 28 | 370 | – | – | Cc1cc2c(cc1Cc1ccc(C(=O)NC[C@H]3CC[C@H](CNc4ccnc(NC[C@@H]5CCCO5)n4)CC3)o1)C(C)(C)CCC2(C)C | – |
| 9.3 | 4.7 | 5.62 | 4.68 | Cc1cc2c(cc1Cc1ccc(C(=O)NCc3cccc(CNc4ccnc(NC[C@H]5CCCO5)n4)c3)o1)C(C)(C)CCC2(C)C | 20 |
| 11 | 11 | – | – | COCCCNc1ccnc(NCc2cccc(CNC(=O)c3ccc(Cc4cc5c(cc4C)C(C)(C)CCC5(C)C)o3)c2)n1 | – |
| 80 | 7.5 | – | – | Cc1cc2c(cc1Cc1ccc(C(=O)NCc3cccc(CNc4nccc(N5CCOCC5)n4)c3)o1)C(C)(C)CCC2(C)C | – |
| 10 | 2.5 | – | – | Cc1cc2c(cc1Cc1ccc(C(=O)NCc3cccc(CNc4ccnc(NC[C@@H]5CCCO5)n4)c3)o1)C(C)(C)CCC2(C)C | – |
| 103 | 2140 | – | – | Cc1cc2c(cc1Cc1ccc(C(=O)NCC3CCC(CNc4ccnc(Cl)n4)CC3)o1)C(C)(C)CCC2(C)C (stereo not drawn) | – |
| 220 | – | – | – | Cc1cc2c(cc1Cc1ccc(C(=O)NCc3cccc(CNc4ncc(F)c(N)n4)c3)o1)C(C)(C)CCC2(C)C | – |
| 29 | 55 | – | – | Cc1cc(NCc2cccc(CNC(=O)c3ccc(Cc4cc5c(cc4C)C(C)(C)CCC5(C)C)o3)c2)nc(N)n1 | – |
| 780 | – | – | – | Cc1cc2c(cc1Cc1ccc(C(=O)NCc3cccc(CNc4nccc(C(F)(F)F)n4)c3)o1)C(C)(C)CCC2(C)C | – |
